Experiments:
Aphidius rhopalosiphi = experiment: LR50; higher = less toxic; conditions: acute; duration: 48 hours; mortality
Cyprinus carpio = conditions: acute; duration: 96 hours; mortality
Colinus virginianus = conditions: acute; oral; mortality
Apis mellifera = conditions: acute, duration: 48 hours, mortality
Daphnia magna = conditions: chronic/long-term; duration: 21 days; mortality
Tagia sp. = conditions: acute; duration: 14 days; mortality
Canidae = conditions: oral, Dog Other, clinical chemistry
Oncorhynchus mykiss = conditions: chronic/long-term; duration: 87 days; mortality
Anas platyrhynchos = conditions: oral, feed

With CCS(=O)(=O)c1nc2ccccn2c1S(=O)(=O)NC(=O)Nc1nc(OC)cc(OC)n1 [Sulfosulfuron] the LR50 (Aphidius rhopalosiphi) was > 29.7 g/ha, the LD50 (Rattus norvegicus; acute, oral, mortality) was > 5000 mg/kg-day and the NOAEL (Rattus norvegicus; chronic, duration: 2 years, histopathology: nonneoplastic) was 24.4 mg/kg-day. For the same molecule, the NOAEL (Rattus norvegicus; reproduction developmental, duration: 22 months, oral, diet, body weight) was 312 mg/kg-day, the LC50 (Cyprinus carpio) was > 91 µg/mL and the LD50 (Colinus virginianus) was > 2250 mg/kg-day. The LD50 (Apis mellifera; dermal) was > 25 µg/piece, the LD50 (Apis mellifera; oral, unspecified) was > 30 µg/piece and the NOEC (Daphnia magna) was 102 mg/L. The LC50 (Tagia sp.) was > 848 mg/kg, the NOAEL (Canidae; chronic, duration: 1 years) was 100 mg/kg-day and the NOAEL (Canidae; subchronic, duration: 90 days) was 100 mg/kg-day. For the same molecule, the NOEC (Oncorhynchus mykiss) was 100 mg/L, the NOEL (Anas platyrhynchos; reproductive) was 33.7 mg/kg-day and the LD50 (Anas platyrhynchos; short-term, mortality) was > 1350 mg/kg-day.

Reference: EPA's ToxValDB 9.5 (doi:10.2903/j.efsa.2014.3764)
